According to PMC7655571, “Acetylcholinesterase inhibition in electric eel and human donor blood: an in vitro approach to investigate interspecies differences and human variability in toxicodynamics” (Archives of Toxicology, 2020):
Values joined by “and” are separate entries in the source; they are usually repeats but may differ in a detail not shown here. Equal entries are not always repeated. “Also recorded” adds a separate entry of the source. Where two headings read alike, the source gives them in different places.

Key:
[1] = target: T1, Electrophorus electricus AChE (Electrophorus electricus, UniProt O42275); test: AChE inhibition, electric eel enzyme (Ellman method); type: biochemical; details: for AChE inhibition (in words), electric eel: concentration–response curves
T1 construct: purchased Sigma-Aldrich C2888
T1 sequence (O42275 24-633): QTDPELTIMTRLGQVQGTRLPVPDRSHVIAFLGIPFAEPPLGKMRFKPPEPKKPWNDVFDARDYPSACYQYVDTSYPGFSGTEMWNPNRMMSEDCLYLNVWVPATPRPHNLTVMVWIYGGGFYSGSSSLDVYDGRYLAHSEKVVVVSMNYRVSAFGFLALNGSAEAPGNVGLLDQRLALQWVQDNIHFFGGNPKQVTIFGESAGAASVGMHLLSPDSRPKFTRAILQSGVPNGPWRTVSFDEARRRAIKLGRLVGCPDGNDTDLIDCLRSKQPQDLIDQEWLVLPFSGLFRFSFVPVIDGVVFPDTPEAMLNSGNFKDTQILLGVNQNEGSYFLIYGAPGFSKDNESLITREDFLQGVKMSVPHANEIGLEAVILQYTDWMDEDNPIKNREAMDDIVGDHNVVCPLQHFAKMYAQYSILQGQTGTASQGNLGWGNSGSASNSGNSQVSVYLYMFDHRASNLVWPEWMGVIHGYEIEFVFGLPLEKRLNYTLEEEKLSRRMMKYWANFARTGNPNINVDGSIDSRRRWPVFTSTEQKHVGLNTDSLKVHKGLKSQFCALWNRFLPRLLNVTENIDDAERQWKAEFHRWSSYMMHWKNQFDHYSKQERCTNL
Experimental: (§1) A 1.3 mM DTNB buffer and a 6 mM acetylthiocholine buffer were prepared in the 50 mM sodium phosphate buffer, a 3 mM ethopropazine buffer was prepared in sterile water and all were stored in aliquots at − 20 °C. A 600 µM ethopropazine buffer was prepared just before use in sodium phosphate buffer.
(§2) Stock solutions were diluted in methanol to create a dosing series and also stored at − 20 °C. These series were 100× diluted in sodium phosphate buffer to get 1% methanol solutions, resulting in a final concentration of 0.1% methanol in the wells.
AChE from Electrophorus electricus (electric eel) and freshly drawn (maximum one-day-old), venous EDTA whole blood samples from healthy human donors were used. […] Following incubation for 30 min at room temperature, electric eel AChE was used directly in the enzyme activity assay (see “Enzyme activity assay”). For human blood AChE, 50 µL of the blood was added to a new 48-wells plate and 950 µL Triton buffer was added to these wells (20× dilution).
Briefly, 20 µL of electric eel AChE or 20 µL of Triton-diluted blood (either exposed or unexposed) and 20 µL ethopropazine were added to 460 µL of DTNB buffer in a 48-wells plate. […] Blank wells contained only DTNB buffer and unexposed enzyme/blood to correct for any background absorbance. To these wells, 100 µL sodium phosphate buffer was added instead of acetylthiocholine after incubation. The final concentration of electric eel AChE was 4 mU/well.
All in vitro data were analysed in GraphPad Prism (version 8.4) and are expressed as mean ± standard deviation (SD). For data analysis, vehicle control (0.1% methanol) was set at 100% for both human and electric eel AChE. For human blood, the technical replicates were averaged to perform statistical tests. […] The electric eel AChE data consisted of 3 technical replicates per experiment and 3–4 independent biological replicates.

[2] = target: T2, human blood AChE (Homo sapiens, UniProt P22303); test: AChE inhibition in human donor whole blood (Ellman method); type: biochemical; details: for AChE inhibition (in words), human blood: concentration–response curves; for Coefficient of variation (CV) C1 Human / Coefficient of variation (CV) C2 Human / Coefficient of variation (CV) C3 Human / Coefficient of variation (CV) C4 Human / Coefficient of variation (CV) C5 Human / Coefficient of variation (CV) C6 Human: human variability in AChE inhibition; for Coefficient of variation (CV) C1 Human: concentration level C1 (Table S2); for Coefficient of variation (CV) C2 Human: concentration level C2 (Table S2); for Coefficient of variation (CV) C3 Human: concentration level C3 (Table S2); for Coefficient of variation (CV) C4 Human: concentration level C4 (Table S2); for Coefficient of variation (CV) C5 Human: concentration level C5 (Table S2); for Coefficient of variation (CV) C6 Human: highest concentration C6 (Table S2); for Human uncertainty factor (UF) UF97.5: interindividual differences, concentration closest to the IC20, 95% CI in brackets
T2 construct: 90 µL undiluted blood in a 48-wells plate; from tissue; host or cells: venous EDTA whole blood from healthy human donors, lysed and diluted in Triton X-100 buffer
T2 sequence (P22303 32-617 isoform P22303-2 limits assumed): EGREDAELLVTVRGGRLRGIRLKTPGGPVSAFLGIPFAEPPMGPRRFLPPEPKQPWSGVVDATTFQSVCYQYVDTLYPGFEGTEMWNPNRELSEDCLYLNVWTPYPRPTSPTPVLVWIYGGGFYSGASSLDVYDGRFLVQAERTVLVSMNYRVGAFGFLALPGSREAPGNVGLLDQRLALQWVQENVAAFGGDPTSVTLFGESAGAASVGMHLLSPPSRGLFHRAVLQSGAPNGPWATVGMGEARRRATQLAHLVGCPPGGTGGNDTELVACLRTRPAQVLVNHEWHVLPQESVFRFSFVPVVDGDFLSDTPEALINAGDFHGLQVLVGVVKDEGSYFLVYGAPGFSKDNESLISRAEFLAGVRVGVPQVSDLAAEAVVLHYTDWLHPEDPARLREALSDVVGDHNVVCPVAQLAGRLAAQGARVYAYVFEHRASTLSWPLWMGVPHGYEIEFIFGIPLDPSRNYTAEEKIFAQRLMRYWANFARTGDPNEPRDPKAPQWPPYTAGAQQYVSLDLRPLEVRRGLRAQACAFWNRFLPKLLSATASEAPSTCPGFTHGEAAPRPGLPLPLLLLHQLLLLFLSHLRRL
Experimental: as §1, §2
AChE from Electrophorus electricus (electric eel) and freshly drawn (maximum one-day-old), venous EDTA whole blood samples from healthy human donors were used. […] For human blood AChE, 50 µL of the blood was added to a new 48-wells plate and 950 µL Triton buffer was added to these wells (20× dilution).
Briefly, 20 µL of electric eel AChE or 20 µL of Triton-diluted blood (either exposed or unexposed) and 20 µL ethopropazine were added to 460 µL of DTNB buffer in a 48-wells plate. […] Blank wells contained only DTNB buffer and unexposed enzyme/blood to correct for any background absorbance. To these wells, 100 µL sodium phosphate buffer was added instead of acetylthiocholine after incubation.
Unexposed, diluted blood (100 µL) was added to a 96-wells plate and 100 µL transformation agent (20 mg potassium ferricyanide, 5 mg potassium cyanide, 100 mg sodium bicarbonate and 50 µL Triton X-100 in 100 mL water) was added. […] Blank wells contained transformation reagent and buffer to correct for any background absorbance.
All in vitro data were analysed in GraphPad Prism (version 8.4) and are expressed as mean ± standard deviation (SD). For data analysis, vehicle control (0.1% methanol) was set at 100% for both human and electric eel AChE. For human blood, the technical replicates were averaged to perform statistical tests. Unpaired t tests were used to test for differences between men and women and a one-way ANOVA followed by a post-hoc Tukey test was used to compare data between different age groups (group 1: ≥ 60 years; group 2: 31–60 years; group 3: ≤ 30 years).

[3] = tested on: human AChE (recombinant enzyme); details: source: recombinant enzyme; ref Li et al. ([2019]); cited from earlier work
[4] = measured or estimated in plasma following human exposure, cited from earlier work
[5] = tested on: electric eel AChE; details: cited from earlier work
[6] = IC50 Human, whole blood, average of 20 donors
[7] = 30 min exposure, room temperature
[8] = 30 min exposure, room temperature, 3–4 independent experiments, read-out: IC50 Electric eel
[9] = whole blood, average of 20 donors, read-out: IC20 Human

COP(=S)(OC)SCN1C(=O)c2ccccc2C1=O [PM, phosmet]
IC50 [1]: > 1400 nM | AChE inhibition (in words), electric eel [1]: do not show any AChE inhibition; also recorded: did not inhibit AChE | AChE inhibition (in words), electric eel ([1]; listed as phosmet): did not show inhibition | IC50 [2, 6]: > 30000 nM | AChE inhibition (in words), human blood [2]: do not inhibit AChE activity; also recorded: do not show any AChE inhibition; also recorded: did not inhibit AChE | AChE inhibition (in words), human blood ([2]; listed as phosmet): did not show inhibition | IC50 Value Human [3]: Inactive | In vivo concentration ([4]; ref Santori et al. ([2020])): ≤ 50 µM

CCOP(=O)(OCC)Oc1cc(C)nc(C(C)C)n1 [DZO, diazinon-oxon]
IC20 [1, 7]: 410 nM | IC50 [1, 8]: 1030 nM | AChE inhibition (in words), electric eel [1]: show inhibition of AChE | IC50 ([5]; ref Čolović et al. ([2011])): 50 nM | AChE inhibition (in words), human blood [2]: show inhibition of AChE | IC20 ([2]; donor 1, read-out: IC20 Value): 500 nM | IC50 ([2]; donor 1, read-out: IC50 Value): 1500 nM | IC20 ([2]; donor 2, read-out: IC20 Value): 700 nM | IC50 ([2]; donor 2, read-out: IC50 Value): 1700 nM | IC20 ([2]; donor 3, read-out: IC20 Value): 1000 nM | IC50 ([2]; donor 3, read-out: IC50 Value): 2300 nM | IC20 ([2]; donor 4, read-out: IC20 Value): 400 nM | IC50 ([2]; donor 4, read-out: IC50 Value): 1500 nM | IC20 ([2]; donor 5, read-out: IC20 Value): 700 nM | IC50 ([2]; donor 5, read-out: IC50 Value): 1600 nM | IC20 ([2]; donor 6, read-out: IC20 Value): 1400 nM | IC50 ([2]; donor 6, read-out: IC50 Value): 2600 nM | IC20 ([2]; donor 7, read-out: IC20 Value): 1200 nM | IC50 ([2]; donor 7, read-out: IC50 Value): 2400 nM | IC20 ([2]; donor 8, read-out: IC20 Value): 1200 nM | IC50 ([2]; donor 8, read-out: IC50 Value): 2200 nM | IC20 ([2]; donor 9, read-out: IC20 Value): 1100 nM | IC50 ([2]; donor 9, read-out: IC50 Value): 2100 nM | IC20 ([2]; donor 10, read-out: IC20 Value): 1900 nM | IC50 ([2]; donor 10, read-out: IC50 Value): 4500 nM | IC20 ([2]; donor 11, read-out: IC20 Value): 1700 nM | IC50 ([2]; donor 11, read-out: IC50 Value): 2900 nM | IC20 ([2]; donor 12, read-out: IC20 Value): 1900 nM | IC50 ([2]; donor 12, read-out: IC50 Value): 3700 nM | IC20 ([2]; donor 13, read-out: IC20 Value): 1100 nM | IC20 ([2]; donor 14, read-out: IC20 Value): 1300 nM | IC50 ([2]; donor 14, read-out: IC50 Value): 2800 nM | IC20 ([2]; donor 15, read-out: IC20 Value): 900 nM | IC50 ([2]; donor 15, read-out: IC50 Value): 1900 nM | IC20 ([2]; donor 16, read-out: IC20 Value): 1300 nM | IC50 ([2]; donor 16, read-out: IC50 Value): 3000 nM | IC20 ([2]; donor 17, read-out: IC20 Value): 900 nM | IC50 ([2]; donor 17, read-out: IC50 Value): 2200 nM | IC20 ([2]; donor 18, read-out: IC20 Value): 1400 nM | IC50 ([2]; donor 18, read-out: IC50 Value): 2900 nM | IC20 ([2]; donor 19, read-out: IC20 Value): 1900 nM | IC50 ([2]; donor 19, read-out: IC50 Value): 3400 nM | IC20 ([2]; donor 20, read-out: IC20 Value): 1300 nM | IC50 ([2]; donor 20, read-out: IC50 Value): 2700 nM | Coefficient of variation (CV) C1 Human [2]: 5.9% | Coefficient of variation (CV) C2 Human [2]: 5.7% | Coefficient of variation (CV) C3 Human [2]: 6.8% | Coefficient of variation (CV) C4 Human [2]: 6.1% | Coefficient of variation (CV) C5 Human [2]: 8.5% | Coefficient of variation (CV) C6 Human [2]: 25% | Human uncertainty factor (UF) UF97.5 [2]: 1.4 [1.2–1.6] | IC20 [2, 9]: 1200 nM | IC50 ([2]; whole blood, average of 20 donors, read-out: IC50 Human): 2500 nM | IC50 [3]: 1300 nM

CCOP(=O)(OCC)Oc1nc(Cl)c(Cl)cc1Cl [CPO, Chlorpyrifos-oxon]
IC20 [1, 7]: 10 nM | AChE inhibition (in words), electric eel [1]: show inhibition of AChE | IC50 ([5]; ref Jett et al. ([1999])): 10 nM | IC50 ([5]; ref Meijer et al. ([2014])): 10 nM | IC50 ([5]; ref Čolović et al. ([2011])): 30 nM | AChE inhibition (in words), human blood [2]: show inhibition of AChE | IC20 ([2]; donor 3, read-out: IC20 Value): 100 nM | IC20 ([2]; donor 4, read-out: IC20 Value): 100 nM | IC20 ([2]; donor 5, read-out: IC20 Value): 100 nM | IC20 ([2]; donor 8, read-out: IC20 Value): 100 nM | IC20 ([2]; donor 11, read-out: IC20 Value): 100 nM | IC20 ([2]; donor 15, read-out: IC20 Value): 100 nM | IC20 ([2]; donor 17, read-out: IC20 Value): 100 nM | concentration at which AChE activity is inhibited completely ([2]; human donor blood): ≥ 2.9 µM | Coefficient of variation (CV) C1 Human [2]: 5.5% | Coefficient of variation (CV) C2 Human [2]: 6.0% | Coefficient of variation (CV) C3 Human [2]: 12% | Coefficient of variation (CV) C4 Human [2]: 99% | Human uncertainty factor (UF) UF97.5 [2]: 2.2 and 2.2 [1.9–2.7] | IC20 [2, 9]: 170 nM | In vivo concentration ([4]; ref Eyer et al. ([2009])): ≤ 0.06 µM | In vivo concentration ([4]; ref Heilmair et al. ([2008])): ≤ 0.02 µM

Cc1nc(N(C)C)nc(OC(=O)N(C)C)c1C [PI, pirimicarb]
IC20 [1, 7]: 9900 nM | IC50 [1, 8]: 61000 nM | AChE inhibition (in words), electric eel [1]: show inhibition of AChE | IC50 [2, 6]: 20000 nM | IC50 ([2]; IC50 Value, donor 1): 19000 nM | IC50 ([2]; IC50 Value, donor 2): 19000 nM | IC50 ([2]; IC50 Value, donor 3): 17000 nM | IC50 ([2]; IC50 Value, donor 4): 22000 nM | IC50 ([2]; IC50 Value, donor 5): 17000 nM | IC50 ([2]; IC50 Value, donor 6): 24000 nM | IC50 ([2]; IC50 Value, donor 7): 23000 nM | IC50 ([2]; IC50 Value, donor 8): 26000 nM | IC50 ([2]; IC50 Value, donor 9): 15000 nM | IC50 ([2]; IC50 Value, donor 11): 29000 nM | IC50 ([2]; IC50 Value, donor 12): 18000 nM | IC50 ([2]; IC50 Value, donor 13): 19000 nM | IC50 ([2]; IC50 Value, donor 14): 15000 nM | IC50 ([2]; IC50 Value, donor 15): 16000 nM | IC50 ([2]; IC50 Value, donor 16): 14000 nM | IC50 ([2]; IC50 Value, donor 17): 16000 nM | IC50 ([2]; IC50 Value, donor 18): 22000 nM | IC50 ([2]; IC50 Value, donor 19): 28000 nM | IC50 ([2]; IC50 Value, donor 20): 19000 nM | AChE inhibition (in words), human blood [2]: show inhibition of AChE | Coefficient of variation (CV) C1 Human [2]: 5.8% | Coefficient of variation (CV) C2 Human [2]: 6.0% | Coefficient of variation (CV) C3 Human [2]: 6.9% | Coefficient of variation (CV) C4 Human [2]: 5.7% | Coefficient of variation (CV) C5 Human [2]: 5.8% | Coefficient of variation (CV) C6 Human [2]: 6.6% | Human uncertainty factor (UF) UF97.5 [2]: 1.8 [1.5–2.1] | IC20 ([2]; read-out: IC20 Human, whole blood, average of 20 donors): 7100 nM | IC20 ([2]; read-out: IC20 Value, donor 1): 8600 nM | IC20 ([2]; read-out: IC20 Value, donor 2): 6400 nM | IC20 ([2]; read-out: IC20 Value, donor 3): 5800 nM | IC20 ([2]; read-out: IC20 Value, donor 4): 8000 nM | IC20 ([2]; read-out: IC20 Value, donor 5): 5900 nM | IC20 ([2]; read-out: IC20 Value, donor 6): 9300 nM | IC20 ([2]; read-out: IC20 Value, donor 7): 6400 nM | IC20 ([2]; read-out: IC20 Value, donor 8): 8100 nM | IC20 ([2]; read-out: IC20 Value, donor 9): 4200 nM | IC20 ([2]; read-out: IC20 Value, donor 10): 5300 nM | IC20 ([2]; read-out: IC20 Value, donor 11): 7000 nM | IC20 ([2]; read-out: IC20 Value, donor 12): 8800 nM | IC20 ([2]; read-out: IC20 Value, donor 13): 4700 nM | IC20 ([2]; read-out: IC20 Value, donor 14): 6100 nM | IC20 ([2]; read-out: IC20 Value, donor 15): 6000 nM | IC20 ([2]; read-out: IC20 Value, donor 16): 5900 nM | IC20 ([2]; read-out: IC20 Value, donor 17): 4800 nM | IC20 ([2]; read-out: IC20 Value, donor 18): 9200 nM | IC20 ([2]; read-out: IC20 Value, donor 19): 18000 nM | IC20 ([2]; read-out: IC20 Value, donor 20): 3400 nM | In vivo concentration ([4]; ref Hoffmann et al. ([2008])): ≤ 300 µM
